Experiments:
[1] = biological target: T1, Adenosine receptor A1 (Homo sapiens, UniProt P30542)
T1 sequence (P30542 whole entry): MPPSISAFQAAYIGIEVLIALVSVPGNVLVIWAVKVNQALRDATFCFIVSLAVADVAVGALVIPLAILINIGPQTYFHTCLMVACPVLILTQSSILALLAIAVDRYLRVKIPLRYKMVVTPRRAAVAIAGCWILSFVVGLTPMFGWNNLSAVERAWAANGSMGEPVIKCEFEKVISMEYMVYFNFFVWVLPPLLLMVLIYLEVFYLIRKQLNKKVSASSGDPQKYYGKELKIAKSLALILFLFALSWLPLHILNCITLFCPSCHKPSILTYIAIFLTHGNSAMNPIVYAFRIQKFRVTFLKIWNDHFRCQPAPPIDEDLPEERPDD

[2] = biological target: T2, Adenosine receptor A2b (Homo sapiens) (UniProt P29275); assay: Displacement of [3H]PSB-603 from human A2B receptor expressed in CHO cell membranes at 1 uM measured after 3 hrs by radioligand binding assay relative to control; conditions: Membrane
T2 sequence (whole entry): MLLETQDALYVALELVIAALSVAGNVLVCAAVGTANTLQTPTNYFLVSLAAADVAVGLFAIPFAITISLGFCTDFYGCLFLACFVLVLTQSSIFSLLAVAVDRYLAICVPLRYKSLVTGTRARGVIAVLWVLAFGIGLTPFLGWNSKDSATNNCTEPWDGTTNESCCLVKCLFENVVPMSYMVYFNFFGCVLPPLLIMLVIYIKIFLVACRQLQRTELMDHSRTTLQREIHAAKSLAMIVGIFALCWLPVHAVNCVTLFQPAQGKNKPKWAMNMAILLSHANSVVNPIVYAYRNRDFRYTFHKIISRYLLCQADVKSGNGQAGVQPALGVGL

[3] = biological target: T3, Adenosine receptor A2a (Homo sapiens, UniProt P29274)
T3 sequence (P29274 whole entry): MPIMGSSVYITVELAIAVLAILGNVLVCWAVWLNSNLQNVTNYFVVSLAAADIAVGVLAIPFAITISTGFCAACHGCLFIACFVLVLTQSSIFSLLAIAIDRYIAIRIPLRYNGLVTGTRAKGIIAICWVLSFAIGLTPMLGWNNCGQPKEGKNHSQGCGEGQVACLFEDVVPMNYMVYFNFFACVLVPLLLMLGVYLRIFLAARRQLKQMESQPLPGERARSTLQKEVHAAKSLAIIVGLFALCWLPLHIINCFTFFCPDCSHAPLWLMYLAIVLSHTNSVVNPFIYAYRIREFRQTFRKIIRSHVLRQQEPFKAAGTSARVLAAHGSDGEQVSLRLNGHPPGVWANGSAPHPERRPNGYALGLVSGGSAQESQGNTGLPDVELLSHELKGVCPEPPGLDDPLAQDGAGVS
Description: Displacement of [3H]ZM241385 from human A2A receptor expressed in HEK293 cell membranes measured after 3 hrs by radioligand binding assay

[4] = biological target: T3, Adenosine receptor A2a; remark: listed apart in the source
[5] = biological target: T3, Adenosine receptor A2a; assay: Displacement of [3H]ZM241385 from human A2A receptor expressed in HEK293 cell membranes at 10 uM measured after 3 hrs by radioligand binding assay relative to control; conditions: Membrane
[6] = biological target: T4, Adenosine receptor A1 (Homo sapiens) (UniProt P30542); assay: Displacement of [3H]DPCPX from human A1 receptor expressed in CHO cell membranes at 10 uM measured after 3 hrs by radioligand binding assay relative to control; conditions: Membrane
T4 sequence (whole entry): T1 sequence (P30542 whole entry)

[7] = biological target: T5, Adenosine receptor A3 (Homo sapiens) (UniProt P0DMS8); assay: Displacement of [3H]PSB-11 from human A3 receptor expressed in CHO cell membranes at 10 uM measured after 3 hrs by radioligand binding assay relative to control; conditions: Membrane
T5 sequence (whole entry): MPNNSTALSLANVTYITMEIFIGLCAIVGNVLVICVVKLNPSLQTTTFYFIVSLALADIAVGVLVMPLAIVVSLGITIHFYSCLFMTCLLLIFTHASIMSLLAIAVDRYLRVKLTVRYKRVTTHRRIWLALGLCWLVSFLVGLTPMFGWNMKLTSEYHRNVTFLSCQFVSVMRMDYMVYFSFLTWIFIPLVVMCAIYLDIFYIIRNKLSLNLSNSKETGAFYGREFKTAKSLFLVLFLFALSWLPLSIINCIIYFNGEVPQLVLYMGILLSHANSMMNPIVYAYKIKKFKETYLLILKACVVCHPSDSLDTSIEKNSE

[8] = biological target: T6, Adenosine receptor A2b (Homo sapiens, UniProt P29275)
T6 sequence (P29275 whole entry): T2 sequence (whole entry)

[9] = biological target: T7, Adenosine receptor A3 (Homo sapiens, UniProt P0DMS8)
T7 sequence (P0DMS8 whole entry): T5 sequence (whole entry)
Description: Displacement of [3H]PSB-11 from human A3 receptor expressed in CHO cell membranes measured after 3 hrs by radioligand binding assay

Ki [1] [nM] | Activity [2] [%] | Ki [3] [nM] | Activity ([2]; filed as partial agonist) [%] | EC50 [4] [nM] | Structure (SMILES) | also measured
112 | 37 | – | – | – | N#Cc1c(-c2ccccc2)cc(N)nc1SCc1ncc[nH]1 | –
85.1 | – | – | 51 | – | N#Cc1c(N)nc(SCc2ncc[nH]2)nc1-c1ccccc1 | Ki [9]: 347 nM
288 | 2 | 562 | – | 813 | Nc1nc(SCc2ncc[nH]2)nc(-c2ccccc2)n1 | –

Continued, compound first:

Structure (SMILES) | Ki [1] [nM] | Activity [2] [%] | Ki [3] [nM] | Activity ([2]; filed as partial agonist) [%] | EC50 [4] [nM] | also measured
N#Cc1c(SCc2ncc[nH]2)nc(N)nc1-c1ccccc1 | 69.2 | – | 10 | 50 | 44.7 | –
Nc1cc(-c2ccccc2)cc(SCc2ncc[nH]2)n1 | – | -12 | – | – | – | Activity [5]: -17%; Activity [6]: 12%; Activity [7]: 46%
N#Cc1c(-c2ccccc2)cc(SCc2ncc[nH]2)nc1N | 417 | – | – | – | – | Ki [8]: 372 nM

Reference: ChEMBL document CHEMBL5038576 (J Med Chem, 2021)
